What is called MIC is the least concentration at which growth counts as inhibited. Higher therefore signals a less susceptible organism.

Values after ≈ are worked out from the molar mass of the structure shown.

The text below walks through data of ChEMBL document CHEMBL1143796, “Synthesis and antimicrobial activity of 1-(4-aryl-2-thiazolyl)-3-(2-thienyl)-5-aryl-2-pyrazoline derivatives” (2007).

The subject of one test is Salmonella typhimurium. In words: Antibacterial activity against Salmonella Typhimurium NRRL B4420 by microbroth dilution method. Type of test: functional, Salmonella enterica subsp. enterica serovar Typhimurium. The settings on record: Salmonella enterica.
In another test the test system is Escherichia coli. Briefly: Antibacterial activity against Escherichia coli NRRL B3704 by microbroth dilution method. Type of test: functional. A general note: Broth dilution looks for growth in wells or tubes with falling amounts of substance.
A further test concerns Staphylococcus aureus. In words: Antibacterial activity against Staphylococcus aureus NRRL B767 by micro-broth dilution method. The test is classed as functional.
The test system of a further test is Nakaseomyces glabratus. Briefly: Antifungal activity against Candida glabrata by broth dilution antifungal susceptibility testing. Type of test: functional.
The next test has as its system Aeromonas hydrophila. Briefly: Antibacterial activity against Aeromonas hydrophila by micro-broth dilution method. Type of test: functional.
The next test relates to Candida albicans. In words: Antifungal activity against Candida albicans by micro-broth dilution method. The test is classed as functional.
In another test the test system is Enterococcus faecalis. In words: Antibacterial activity against Streptococcus faecalis NRRL B14617 by micro-broth dilution method. Type of test: functional.
The test system of another test is Bacillus cereus. Briefly: Antibacterial activity against Bacillus cereus NRRL B3711 by micro-broth dilution method. Type of test: functional.

Turning to `O=[N+]([O-])c1ccc(-c2csc(N3N=C(c4cccs4)CC3c3cccnc3)n2)cc1` (stereo not given), the MIC worked out at 125 mg/L (≈ 288 µM) in the test on Salmonella typhimurium; 250 mg/L (≈ 577 µM) in the test on Escherichia coli; 31.2 mg/L (≈ 72.1 µM) in the test with Staphylococcus aureus; 62.5 mg/L (≈ 144 µM) with Nakaseomyces glabratus; 31.2 mg/L (≈ 72.1 µM) in the test with Aeromonas hydrophila; 62.5 mg/L (≈ 144 µM) against Candida albicans. For the same compound, the MIC with Enterococcus faecalis and in the test with Bacillus cereus was 125 mg/L (≈ 288 µM) each time.
For `c1ccc(-c2csc(N3N=C(c4cccs4)CC3c3ccccn3)n2)cc1` (stereo not given), the MIC against Salmonella typhimurium came to 125 mg/L (≈ 322 µM); against Escherichia coli, 125 mg/L (≈ 322 µM); against Staphylococcus aureus, 250 mg/L (≈ 643 µM); against Nakaseomyces glabratus, 62.5 mg/L (≈ 161 µM); against Aeromonas hydrophila it was 62.5 mg/L (≈ 161 µM); in the test with Candida albicans, 62.5 mg/L (≈ 161 µM). Also, the minimum inhibitory concentration (MIC) against Enterococcus faecalis and with Bacillus cereus was 250 mg/L (≈ 643 µM) throughout.
Turning to `COc1ccc(-c2csc(N3N=C(c4cccs4)CC3c3ccccn3)n2)cc1` (stereo not given), the MIC in the test with Salmonella typhimurium worked out at 125 mg/L (≈ 299 µM); against Escherichia coli it was 125 mg/L (≈ 299 µM); in the test with Staphylococcus aureus it was 125 mg/L (≈ 299 µM); in the test on Nakaseomyces glabratus it was 62.5 mg/L (≈ 149 µM); with Aeromonas hydrophila, 62.5 mg/L (≈ 149 µM); with Candida albicans, 62.5 mg/L (≈ 149 µM). The minimum inhibitory concentration (MIC) in the test with Enterococcus faecalis and in the test with Bacillus cereus was 250 mg/L (≈ 597 µM) each time.
`Clc1ccc(-c2csc(N3N=C(c4cccs4)CC3c3ccccn3)n2)cc1` (stereo not given): the MIC came to 250 mg/L (≈ 591 µM) in the test on Salmonella typhimurium; 125 mg/L (≈ 296 µM) against Escherichia coli; 250 mg/L (≈ 591 µM) against Staphylococcus aureus; 125 mg/L (≈ 296 µM) with Nakaseomyces glabratus; 125 mg/L (≈ 296 µM) with Aeromonas hydrophila; 125 mg/L (≈ 296 µM) against Candida albicans. For the same compound, the MIC against Enterococcus faecalis and in the test on Bacillus cereus was 250 mg/L (≈ 591 µM) throughout.
As for `O=[N+]([O-])c1ccc(-c2csc(N3N=C(c4cccs4)CC3c3ccccn3)n2)cc1` (stereo not given), the MIC is 250 mg/L (≈ 577 µM) against Salmonella typhimurium; 125 mg/L (≈ 288 µM) with Escherichia coli; 250 mg/L (≈ 577 µM) in the test on Staphylococcus aureus; 125 mg/L (≈ 288 µM) against Nakaseomyces glabratus; 125 mg/L (≈ 288 µM) against Aeromonas hydrophila; 125 mg/L (≈ 288 µM) against Candida albicans. Further, the MIC with Enterococcus faecalis and against Bacillus cereus was 500 mg/L (≈ 1150 µM) in each case.
Take `O=[N+]([O-])c1ccc(-c2csc(N3N=C(c4cccs4)CC3c3ccncc3)n2)cc1` (stereo not given): the MIC against Salmonella typhimurium, against Escherichia coli, in the test on Staphylococcus aureus, in the test with Nakaseomyces glabratus, against Aeromonas hydrophila and against Candida albicans was 125 mg/L (≈ 288 µM) throughout. Also, the results for the MIC in the test on Enterococcus faecalis and in the test with Bacillus cereus were 250 mg/L (≈ 577 µM) and 62.5 mg/L (≈ 144 µM), respectively.
In the case of `Cc1ccc(-c2csc(N3N=C(c4cccs4)CC3c3cccnc3)n2)cc1` (stereo not given), the MIC came out at 125 mg/L (≈ 311 µM) in the test on Salmonella typhimurium; 250 mg/L (≈ 621 µM) in the test on Escherichia coli; 125 mg/L (≈ 311 µM) with Staphylococcus aureus; 125 mg/L (≈ 311 µM) against Nakaseomyces glabratus; 250 mg/L (≈ 621 µM) with Aeromonas hydrophila; 125 mg/L (≈ 311 µM) in the test with Candida albicans. Also, the minimal inhibitory concentration (MIC) against Enterococcus faecalis and against Bacillus cereus was 250 mg/L (≈ 621 µM) in each case.
In the case of `Cc1ccc(-c2csc(N3N=C(c4cccs4)CC3c3ccncc3)n2)cc1` (stereo not given), the minimum inhibitory concentration (MIC) against Salmonella typhimurium is 125 mg/L (≈ 311 µM); with Escherichia coli it was 250 mg/L (≈ 621 µM); against Staphylococcus aureus, 125 mg/L (≈ 311 µM); against Nakaseomyces glabratus, 125 mg/L (≈ 311 µM); in the test with Aeromonas hydrophila, 125 mg/L (≈ 311 µM); against Candida albicans, 125 mg/L (≈ 311 µM). The MIC amounted to 250 mg/L (≈ 621 µM) against Enterococcus faecalis and 62.5 mg/L (≈ 155 µM) in the test with Bacillus cereus.
For the compound `COc1ccc(-c2csc(N3N=C(c4cccs4)CC3c3ccncc3)n2)cc1` (stereo not given), the MIC against Salmonella typhimurium amounted to 125 mg/L (≈ 299 µM); with Escherichia coli, 125 mg/L (≈ 299 µM); in the test on Staphylococcus aureus, 125 mg/L (≈ 299 µM); in the test on Nakaseomyces glabratus, 62.5 mg/L (≈ 149 µM); against Aeromonas hydrophila it was 125 mg/L (≈ 299 µM); in the test with Candida albicans, 62.5 mg/L (≈ 149 µM). In addition, the values for the MIC in the test with Enterococcus faecalis and in the test with Bacillus cereus were 250 mg/L (≈ 597 µM) and 62.5 mg/L (≈ 149 µM), respectively.
On to `c1ccc(-c2csc(N3N=C(c4cccs4)CC3c3cccnc3)n2)cc1` (stereo not given), for which the MIC turned out to be 250 mg/L (≈ 643 µM) in the test with Salmonella typhimurium; 250 mg/L (≈ 643 µM) against Escherichia coli; 125 mg/L (≈ 322 µM) in the test with Staphylococcus aureus; 250 mg/L (≈ 643 µM) in the test on Nakaseomyces glabratus; 250 mg/L (≈ 643 µM) with Aeromonas hydrophila; 250 mg/L (≈ 643 µM) with Candida albicans. Moreover, the MIC with Enterococcus faecalis and against Bacillus cereus was 250 mg/L (≈ 643 µM) each time.
Turning to `COc1ccc(-c2csc(N3N=C(c4cccs4)CC3c3cccnc3)n2)cc1` (stereo not given), the minimal inhibitory concentration (MIC) against Salmonella typhimurium is 125 mg/L (≈ 299 µM); against Escherichia coli, 250 mg/L (≈ 597 µM); in the test on Staphylococcus aureus, 250 mg/L (≈ 597 µM); in the test on Nakaseomyces glabratus it was 125 mg/L (≈ 299 µM); in the test on Aeromonas hydrophila, 125 mg/L (≈ 299 µM); in the test on Candida albicans, 125 mg/L (≈ 299 µM). In addition, the MIC with Enterococcus faecalis and against Bacillus cereus was 250 mg/L (≈ 597 µM) throughout.
For `Clc1ccc(-c2csc(N3N=C(c4cccs4)CC3c3cccnc3)n2)cc1` (stereo not given), the MIC in the test on Salmonella typhimurium, with Escherichia coli, against Staphylococcus aureus, against Nakaseomyces glabratus, against Aeromonas hydrophila and in the test on Candida albicans was 250 mg/L (≈ 591 µM) in each case. The MIC with Enterococcus faecalis and against Bacillus cereus was 125 mg/L (≈ 296 µM) each time.
As for `Clc1ccc(-c2csc(N3N=C(c4cccs4)CC3c3ccncc3)n2)cc1` (stereo not given), the minimal inhibitory concentration (MIC) against Salmonella typhimurium was 62.5 mg/L (≈ 148 µM); against Escherichia coli, 125 mg/L (≈ 296 µM); in the test on Staphylococcus aureus, 62.5 mg/L (≈ 148 µM); against Nakaseomyces glabratus, 62.5 mg/L (≈ 148 µM); with Aeromonas hydrophila it was 62.5 mg/L (≈ 148 µM); against Candida albicans it was 125 mg/L (≈ 296 µM). Besides, the MIC against Enterococcus faecalis and in the test on Bacillus cereus was 62.5 mg/L (≈ 148 µM) in each case.
For `c1ccc(-c2csc(N3N=C(c4cccs4)CC3c3ccncc3)n2)cc1` (stereo not given), the MIC against Salmonella typhimurium turned out to be 62.5 mg/L (≈ 161 µM); against Escherichia coli it was 250 mg/L (≈ 643 µM); against Staphylococcus aureus it was 15.6 mg/L (≈ 40.2 µM); against Nakaseomyces glabratus, 250 mg/L (≈ 643 µM); against Aeromonas hydrophila, 31.2 mg/L (≈ 80.4 µM); in the test with Candida albicans, 250 mg/L (≈ 643 µM). The MIC with Enterococcus faecalis and against Bacillus cereus was 31.2 mg/L (≈ 80.4 µM) in each case.
Turning to `Cc1ccc(-c2csc(N3N=C(c4cccs4)CC3c3ccccn3)n2)cc1` (stereo not given), the MIC in the test with Salmonella typhimurium came to 125 mg/L (≈ 311 µM); in the test with Escherichia coli it was 125 mg/L (≈ 311 µM); against Staphylococcus aureus it was 250 mg/L (≈ 621 µM); in the test with Nakaseomyces glabratus, 62.5 mg/L (≈ 155 µM); in the test with Aeromonas hydrophila it was 62.5 mg/L (≈ 155 µM); against Candida albicans, 62.5 mg/L (≈ 155 µM). For the same compound, the MIC against Enterococcus faecalis and against Bacillus cereus was 250 mg/L (≈ 621 µM) each time.
